Legend:
Assay type in all cases: in vivo
Abutilon theophrasti [1] = experiment: Post-emergence herbicidal action; settings: rated visually after about 3 weeks vs untreated controls
Summary of the method: (§1)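 Percent activity, judged by eye about 3 weeks after treatment relative to untreated plants, ranges from 0% (as control) to 100% (plants dead). Foliar application at 20 g/ha and less was made at the one-leaf stage using a 600 l/ha aqueous spray containing 0.5% additive.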

Alopecurus myosuroides [2] = experiment: Post-emergence herbicidal action; settings: rated visually after about 3 weeks vs untreated controls
Summary of the method: as §1

Amaranthus retroflexus [3] = experiment: Post-emergence herbicidal action; settings: rated visually after about 3 weeks vs untreated controls
Summary of the method: as §1

Avena fatua [4] = experiment: Post-emergence herbicidal action; settings: application rate 20 g/ha, rated visually after about 3 weeks vs untreated controls
Summary of the method: as §1

Digitaria sanguinalis [5] = experiment: Post-emergence herbicidal action; settings: rated visually after about 3 weeks vs untreated controls
Summary of the method: as §1

Echinochloa crus-galli [6] = experiment: Post-emergence herbicidal action; settings: rated visually after about 3 weeks vs untreated controls
Summary of the method: as §1

Hordeum murinum = experiment: Post-emergence herbicidal action; settings: application rate 20 g/ha
Summary of the method: as §1

Lolium rigidum [7] = experiment: Post-emergence herbicidal action; settings: application rate 20 g/ha, rated visually after about 3 weeks vs untreated controls
Summary of the method: as §1

Matricaria inodora [8] = experiment: Post-emergence herbicidal action; settings: rated visually after about 3 weeks vs untreated controls
Summary of the method: as §1

Pharbitis purpurea [9] = experiment: Post-emergence herbicidal action; settings: rated visually after about 3 weeks vs untreated controls
Summary of the method: as §1

Polygonum convolvulus [10] = experiment: Post-emergence herbicidal action
Summary of the method: as §1

Setaria viridis [11] = experiment: Post-emergence herbicidal action; settings: rated visually after about 3 weeks vs untreated controls
Summary of the method: as §1

Stellaria media = experiment: Post-emergence herbicidal action; settings: application rate 5 g/ha, rated visually after about 3 weeks vs untreated controls
Summary of the method: as §1

Veronica persica [12] = experiment: Post-emergence herbicidal action
Summary of the method: as §1

Viola tricolor [13] = experiment: Post-emergence herbicidal action
Summary of the method: as §1

Oryza sativa = experiment: Post-emergence crop plant compatibility; settings: application rate 5 g/ha
Summary of the method: (§2)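 Greenhouse crop plants in sandy loam sprayed at one-leaf stage (2-3 weeks after sowing) with WP or EC formulations plus 0.5% additive, 600 l/ha water, at 5 g/ha or 20 g/ha. Damage scored visually after about 3 weeks as % versus untreated controls (100% = plants dead).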

Zea mays [14] = experiment: Post-emergence crop plant compatibility; settings: application rate 5 g/ha
Summary of the method: as §2

Triticum aestivum [15] = experiment: Post-emergence crop plant compatibility; settings: application rate 5 g/ha
Summary of the method: as §2

Abutilon theophrasti [16] = experiment: Pre-emergence herbicidal action; settings: application rate 20 g/ha
Description: (§3) B. Pre-Emergence Herbicidal Action and Crop Plant Compatibility Seeds of monocotyledonous and dicotyledonous weed plants and crop plants were placed in plastic or organic planting pots and covered with soil. The compounds of the invention, formulated in the form of wettable powders (WP) or as emulsion concentrates (EC), were then applied to the surface of the covering soil as aqueous suspension or emulsion with addition of 0.5% additive at a water application rate equivalent to 600 l/ha (converted). After the treatment, the pots were placed in a greenhouse and kept under good growth conditions for the test plants. After about 3 weeks, the effect of the preparations was scored visually in comparison with untreated controls as percentages. For example, 100% activity=the plants have died, 0% activity=like control plants. Tables B1 to B13 below show the effects of selected compounds of the general formula (I) according to Tables I.1 to I.36 on various harmful plants and at an application rate corresponding to 80 g/ha or less, which were obtained by the experimental procedure mentioned above.

Alopecurus myosuroides [17] = experiment: Pre-emergence herbicidal action
Description: as §3

Amaranthus retroflexus [18] = experiment: Pre-emergence herbicidal action; settings: application rate 20 g/ha
Description: as §3

Avena fatua [19] = experiment: Pre-emergence herbicidal action; settings: application rate 80 g/ha
Description: as §3

Digitaria sanguinalis [20] = experiment: Pre-emergence herbicidal action; settings: application rate 20 g/ha
Description: as §3

Echinochloa crus-galli [21] = experiment: Pre-emergence herbicidal action
Description: as §3

Lolium rigidum [22] = experiment: Pre-emergence herbicidal action; settings: application rate 80 g/ha
Description: as §3

Matricaria inodora [23] = experiment: Pre-emergence herbicidal action; settings: application rate 20 g/ha
Description: as §3

Pharbitis purpurea [24] = experiment: Pre-emergence herbicidal action; settings: application rate 20 g/ha
Description: as §3

Polygonum convolvulus [25] = experiment: Pre-emergence herbicidal action; settings: application rate 20 g/ha
Description: as §3

Setaria viridis [26] = experiment: Pre-emergence herbicidal action; settings: application rate 20 g/ha
Description: as §3

Veronica persica [27] = experiment: Pre-emergence herbicidal action; settings: application rate 20 g/ha
Description: as §3

Viola tricolor [28] = experiment: Pre-emergence herbicidal action; settings: application rate 20 g/ha
Description: as §3

Zea mays [29] = experiment: Pre-emergence crop plant compatibility; settings: application rate 20 g/ha
Description: (§4) B. Pre-Emergence Herbicidal Action and Crop Plant Compatibility
as §3, with “Seeds” for “B. Pre-Emergence Herbicidal Action and Crop Plant Compatibility Seeds”, “plants.” for “plants. Tables B1 to B13 below show the effects of selected compounds of the general formula (I) according to Tables I.1 to I.36 on various harmful plants and at an application rate corresponding to 80 g/ha or less, which were obtained by the experimental procedure mentioned above.”
(§5) Tables B14 to B16 below show the crop plant compatibilities of selected compounds of the general formula (I) according to Tables I.1 to I.36 at an application rate corresponding to 20 g/ha, which were obtained in experiments according to the experimental procedure mentioned above. Here, the observed effects on selected crop plants are stated in comparison to the untreated controls (values in %).

Triticum aestivum [30] = experiment: Pre-emergence crop plant compatibility; settings: application rate 20 g/ha
Description: as §4
as §3, with “Seeds” for “B. Pre-Emergence Herbicidal Action and Crop Plant Compatibility Seeds”, “plants.” for “plants. Tables B1 to B13 below show the effects of selected compounds of the general formula (I) according to Tables I.1 to I.36 on various harmful plants and at an application rate corresponding to 80 g/ha or less, which were obtained by the experimental procedure mentioned above.”
as §5

Row | SMILES | Abutilon theophrasti (efficacy in %) (Abutilon theophrasti [1]; application rate 5 g/ha) | Alopecurus myosuroides (efficacy in %) (Alopecurus myosuroides [2]; application rate 5 g/ha) | Amaranthus retroflexus (efficacy in %) (Amaranthus retroflexus [3]; application rate 5 g/ha) | Avena fatua (efficacy in %) (Avena fatua [4]) | Digitaria sanguinalis (efficacy in %) (Digitaria sanguinalis [5]; application rate 5 g/ha) | Echinochloa crus-galli (efficacy in %) (Echinochloa crus-galli [6]; application rate 5 g/ha) | Hordeum murinum (efficacy in %) (Hordeum murinum) | Lolium rigidum (efficacy in %) (Lolium rigidum [7]) | Matricaria inodora (efficacy in %) (Matricaria inodora [8]; application rate 5 g/ha) | Pharbitis purpurea (efficacy in %) (Pharbitis purpurea [9]; application rate 5 g/ha) | Polygonum convolvulus (efficacy in %) (Polygonum convolvulus [10]; application rate 5 g/ha) | Setaria viridis (efficacy in %) (Setaria viridis [11]; application rate 5 g/ha) | Stellaria media (efficacy in %) (Stellaria media) | Veronica persica (efficacy in %) (Veronica persica [12]; application rate 5 g/ha) | Viola tricolor (efficacy in %) (Viola tricolor [13]; application rate 5 g/ha) | Oryza sativa (efficacy in %) (Oryza sativa) | Zea mays (efficacy in %) (Zea mays [14]) | Matricaria inodora (efficacy in %) (Matricaria inodora [8]; application rate 20 g/ha) | Abutilon theophrasti (efficacy in %) (Abutilon theophrasti [16]) | Amaranthus retroflexus (efficacy in %) (Amaranthus retroflexus [18]) | further results
1 | Cn1c(C(F)(F)F)cc(=O)n(-c2cc(Sc3cccnc3SCC(=O)OCC3CCCO3)c(Cl)cc2F)c1=O (stereo not drawn) [I.10-71] | 100% | 80% | 100% | 80% | 90% | 100% | 80% | 80% | 80% | 100% | 100% | 100% | 100% | 90% | 100% | 20% | 20% | – | – | – | –
2 | COCCOC(=O)COc1ncccc1Oc1cc(-n2c(=O)cc(C(F)(F)F)n(C)c2=O)c(F)cc1[N+](=O)[O-] [I.14-1] | – | – | – | 80% | – | – | – | 80% | – | – | – | – | – | – | – | 0% | 10% | 100% | – | – | Abutilon theophrasti (efficacy in %) (Abutilon theophrasti [1]; application rate 20 g/ha): 100%; Alopecurus myosuroides (efficacy in %) (Alopecurus myosuroides [2]; application rate 20 g/ha): 90%; Amaranthus retroflexus (efficacy in %) (Amaranthus retroflexus [3]; application rate 20 g/ha): 100%; Digitaria sanguinalis (efficacy in %) (Digitaria sanguinalis [5]; application rate 20 g/ha): 100%; Echinochloa crus-galli (efficacy in %) (Echinochloa crus-galli [6]; application rate 20 g/ha): 100%; Pharbitis purpurea (efficacy in %) (Pharbitis purpurea [9]; application rate 20 g/ha): 100%; Polygonum convolvulus (efficacy in %) (Polygonum convolvulus [10]; application rate 20 g/ha): 100%; Setaria viridis (efficacy in %) (Setaria viridis [11]; application rate 20 g/ha): 100%; Veronica persica (efficacy in %) (Veronica persica [12]; application rate 20 g/ha): 100%; Viola tricolor (efficacy in %) (Viola tricolor [13]; application rate 20 g/ha): 100%
3 | Cn1c(C(F)(F)F)cc(=O)n(-c2cc(Oc3cccnc3OCC(=O)OCC#N)c(Cl)cc2F)c1=O [I.15-176] | 100% | 80% | 100% | 90% | 100% | 100% | 100% | – | – | 100% | 100% | 100% | 100% | 90% | 100% | 20% | 20% | 100% | – | – | Triticum aestivum (efficacy in %) (Triticum aestivum [15]): 20%
4 | Cn1c(C(F)(F)F)cc(=O)n(-c2cc(Oc3cccnc3OCC(=O)OC[Si](C)(C)C)c(Cl)cc2F)c1=O [I.15-201] | 100% | – | 100% | – | 100% | 100% | – | – | – | 100% | – | – | – | 100% | – | 0% | 20% | – | 100% | 100% | Alopecurus myosuroides (efficacy in %) (Alopecurus myosuroides [17]; application rate 80 g/ha): 100%; Avena fatua (efficacy in %) (Avena fatua [19]): 100%; Digitaria sanguinalis (efficacy in %) (Digitaria sanguinalis [20]): 100%; Echinochloa crus-galli (efficacy in %) (Echinochloa crus-galli [21]; application rate 80 g/ha): 100%; Lolium rigidum (efficacy in %) (Lolium rigidum [22]): 100%; Matricaria inodora (efficacy in %) (Matricaria inodora [23]): 100%; Pharbitis purpurea (efficacy in %) (Pharbitis purpurea [24]): 100%; Polygonum convolvulus (efficacy in %) (Polygonum convolvulus [25]): 100%; Setaria viridis (efficacy in %) (Setaria viridis [26]): 100%; Veronica persica (efficacy in %) (Veronica persica [27]): 100%; Viola tricolor (efficacy in %) (Viola tricolor [28]): 100%; Zea mays (efficacy in %) (Zea mays [29]): 0%
5 | Cn1c(C(F)(F)F)cc(=O)n(-c2cc(Oc3cccnc3OCC(=O)OCC3OCCO3)c(Cl)cc2F)c1=O [I.15-424] | 100% | – | 100% | 100% | 100% | 100% | – | – | 100% | 100% | – | – | – | 100% | – | – | – | – | 100% | 100% | Alopecurus myosuroides (efficacy in %) (Alopecurus myosuroides [17]; application rate 20 g/ha): 80%; Avena fatua (efficacy in %) (Avena fatua [19]): 100%; Digitaria sanguinalis (efficacy in %) (Digitaria sanguinalis [20]): 100%; Echinochloa crus-galli (efficacy in %) (Echinochloa crus-galli [21]; application rate 20 g/ha): 90%; Lolium rigidum (efficacy in %) (Lolium rigidum [22]): 100%; Matricaria inodora (efficacy in %) (Matricaria inodora [23]): 100%; Pharbitis purpurea (efficacy in %) (Pharbitis purpurea [24]): 100%; Polygonum convolvulus (efficacy in %) (Polygonum convolvulus [25]): 100%; Setaria viridis (efficacy in %) (Setaria viridis [26]): 100%; Veronica persica (efficacy in %) (Veronica persica [27]): 100%; Viola tricolor (efficacy in %) (Viola tricolor [28]): 100%; Triticum aestivum (efficacy in %) (Triticum aestivum [30]): 10%
